Test results as given in US11850253B2, “Two component compositions” (Asamedic AS, priority 2017, dated 2023).

Test: Dissolution of ASA together with sodium carbonate (one component) in 15 ml pure water in two-component device
Assay type: physicochemical
Method: In the following example ASA and the disodium salt of carbonic acid (Na2CO3) are dissolved at the same time in 15 ml pure water.
300 mg ASA and 258-263 mg sodium carbonate (Na2CO3) were placed together in the powder compartment of the test device used in example 1, and 15 ml of pure water was filled into the container (bottle) of said device. After releasing the ASA and sodium carbonate into the water, the solution was shaken until all ASA was dissolved.

- pH of the solutions after dissolution of ASA and the carbonate salt (300 mg ASA and 258-263 mg Na2CO3, 15 ml pure water): 9.41-9.43
- Time before ASA was dissolved (300 mg ASA and 258-263 mg Na2CO3 together as powder, 15 ml pure water): approx. 120 sec.
Structure (SMILES): CC(=O)Oc1ccccc1C(=O)O [ASA, acetylsalicylic acid]
